Experiments:
Brd4 BD2 = Brd4 BD2 (Homo sapiens (Human), UniProt O60885); assay: HTRF evaluation of bromodomain inhibitors, Brd4 BD2; type: binding; settings: for IC50: HTRF, H4ac4 peptide 600 nM, 24 h at 4° C.; for Selectivity BD2/BD1: ratio of the BD1 and BD2 IC50
Procedure: (§1) HTRF reagents and buffers were purchased from Cisbio Bioassays. The assay used a terbium (Ill) cryptate donor reagent conjugated to an anti-GST antibody (MAb anti-GST-Tb; GSTTLA), a streptavidin-conjugated acceptor reagent (streptavidin-d2) and Cisbio proprietary buffers (EPlgeneous Binding Domain Diluent and Detection buffer, respectively). GST-tagged bromodomains (BDs) were expressed in E. coli and purified using standard procedures. Incubation of GST-tagged BDs with biotinylated acetylated H4 peptide (H4K5acK8acK12acK16ac, here named H4ac4) brings the donor and acceptor into close proximity and allows for a FRET reaction. GST-tagged proteins in 25 mM Hepes pH 7.5, 150 mM NaCl, 0.5 mM DTT were assayed at a final concentration of 5 nM. Biotinylated H4ac4 peptides were used at a final concentration of 50, 600 nM in assays involving Brd4 BD1, Brd4 BD2, respectively. The antibody-conjugated donor was used at 0.5 nM and the streptavidin-conjugated acceptor was used at ⅛ of the H4ac4 peptide concentration. Inhibitors were tested by performing an eleven-point dilution series with a maximal final concentration of […]. These concentrations allowed a fixed DMSO concentration at 0.2%, critical for a Z′ factor ≥0.8. Components were incubated at 4° C. for 4 h (BD1) or for 24 h (BD2). Experiments were performed in 384-well white plates (Greiner ref. 781080) and analyzed in a ClarioStar plate reader (BMG LABTECH, excitation at 330 nm and emission at 620 and 665 nm, corresponding to the donor and acceptor emission peaks, respectively; the 665/620 ratio is used to calculate the specific HTRF signal) with an integration delay of 60 μs and an integration time of 400 μs.

Brd4 BD1 = Brd4 BD1 (Homo sapiens (Human), UniProt O60885); assay: HTRF evaluation of bromodomain inhibitors, Brd4 BD1; type: binding; settings: H4ac4 peptide 50 nM, 4 h at 4° C.
Procedure: as §1

Compound | IC50 (Brd4 BD2) [nM] | IC50 (Brd4 BD1) [nM] | Selectivity BD2/BD1 (Brd4 BD2)
CC[C@@H]1[C@H](C)[C@@H](N=[N+]=[N-])c2cc(C(=O)OC)ccc2N1C(C)=O (single isomer, unassigned) [ent-27] | > 100000 | > 100000 | –
CC[C@@H]1[C@H](C)[C@@H](n2cc(-c3ccccc3)nn2)c2cc(C(=O)OC)ccc2N1C(C)=O (single isomer, unassigned) [ent-28] | 51400 | > 100000 | –
CC[C@H]1[C@@H](C)[C@H](N=[N+]=[N-])c2cc(C(=O)OC)ccc2N1C(C)=O [Compound 27, Methyl-(2S,3R,4S)-1-acetyl-4-azido-2-ethyl-3-methyl-1,2,3,4-tetrahydroquinoline-6-carboxylate] | 1880 | 17700 | 9.4
CC[C@H]1[C@@H](C)[C@H](n2cc(-c3ccccc3)nn2)c2cc(C(=O)OC)ccc2N1C(C)=O [Compound 28, Methyl-(2S,3R,4S)-1-acetyl-2-ethyl-3-methyl-4-(4-phenyl-1H-1,2,3-triazol-1-yl)-1,2,3,4-tetrahydroquinoline-6-carboxylate] | 567 | 8310 | 14.7
CC[C@H]1[C@H](C)[C@@H](N=[N+]=[N-])c2cc(C(=O)OC)ccc2N1C(C)=O [Compound 30, Methyl-(2S,3S,4R)-1-acetyl-4-azido-2-ethyl-3-methyl-1,2,3,4-tetrahydroquinoline-6-carboxylate] | > 20000 | > 20000 | –
CC[C@H]1[C@H](C)[C@@H](n2cc(-c3ccccc3)nn2)c2cc(C(=O)OC)ccc2N1C(C)=O [Compound 31, Methyl-(2S,3S,4R)-1-acetyl-2-ethyl-3-methyl-4-(4-phenyl-1H-1,2,3-triazol-1-yl)-1,2,3,4-tetrahydroquinoline-6-carboxylate] | 14900 | > 200000 | –
C#CCOCCOCCOCCOCc1cn([C@H]2c3cc(C(=O)OC)ccc3N(C(C)=O)[C@@H](CC)[C@@H]2C)nn1 [Compound 32, Methyl-(2S,3S,4R)-4-(4-(2,5,8,11-tetraoxatetradec-13-yn-1-yl)-1H-1,2,3-triazol-1-yl)-1-acetyl-2-ethyl-3-methyl-1,2,3,4-tetrahydroquinoline-6-carboxylate] | > 20000 | > 20000 | –
C=CCCCC(=O)Nc1ccc(-c2ccc3c(c2)[C@@H](N=[N+]=[N-])[C@H](C)[C@H](CC)N3C(C)=O)cc1 [XC, N-(4-((2S,3R,4S)-1-acetyl-4-azido-2-ethyl-3-methyl-1,2,3,4-tetrahydroquinolin-6-yl)phel)hex-5-enamide] | 2230 | 3100 | 1.4
C=CCCCC(=O)Nc1ccc(-c2ccc3c(c2)[C@@H](n2cc(CCCCC)nn2)[C@H](C)[C@H](CC)N3C(C)=O)cc1 [XE, N-(4-((2S,3R,4S)-1-acetyl-2-ethyl-3-methyl-4-(4-pentyl-1H-1,2,3-triazol-1-yl)-1,2,3,4-tetrahydroquinolin-6-yl)phenyl)hex-5-enamide] | 3180 | 4080 | 1.3
CCCCCc1cn([C@@H]2c3cc(C(=O)OC)ccc3N(C(C)=O)[C@@H](CC)[C@H]2C)nn1 [XF, Methyl (2S,3R,4S)-1-acetyl-2-ethyl-3-methyl-4-(4-pentyl-1H-1,2,3-triazol-1-yl)-1,2,3,4-tetrahydroquinoline-6-carboxylate] | 1930 | 30000 | 15.6
C=CCCCC(=O)Nc1ccc(-c2ccc3c(c2)[C@@H](NC(=O)OC(C)C)[C@H](C)[C@H](CC)N3C(C)=O)cc1 [XI, Isopropyl-((2S,3S,4S)-1-acetyl-2-ethyl-6-(4-(hex-5-enamido)phenyl)-3-methyl-1,2,3,4-tetrahydroquinolin-4-yl)carbamate] | 2170 | 2680 | 1.2
CC[C@H]1[C@@H](C)[C@H](NC(=O)OC(C)C)c2cc(C(=O)OC)ccc2N1C(C)=O [XJ, Methyl-(2S,3S,4S)-1-acetyl-2-ethyl-4-((isopropoxycarbonyl)amino)-3-methyl-1,2,3,4-tetrahydroquinoline-6-carboxylate] | 1880 | 24200 | 12.8
C=CCCCC(=O)Nc1ccc(-c2ccc3c(c2)[C@@H](Nc2ncc(Cl)cn2)[C@H](C)[C@H](CC)N3C(C)=O)cc1 [XK, N-(4-((2S,3S,4S)-1-acetyl-4-((5-chloropyrimidin-2-yl)amino)-2-ethyl-3-methyl-1,2,3,4-tetrahydroquinolin-6-yl)phenyl)hex-5-enamide] | 1330 | 3140 | 2.4
CC[C@H]1[C@@H](C)[C@H](Nc2ncc(Cl)cn2)c2cc(C(=O)OC)ccc2N1C(C)=O [XL, Methyl (2S,3S,4S)-1-acetyl-4-((5-chloropyrimidin-2-yl)amino)-2-ethyl-3-methyl-1,2,3,4-tetrahydroquinoline-6-carboxylate] | 1130 | 10100 | 9.0
CC[C@H]1[C@@H](C)[C@H](n2cc(-c3ccc(OC)cc3)nn2)c2cc(C(=O)OC)ccc2N1C(C)=O [XM, Methyl (2S,3R,4S)-1-acetyl-2-ethyl-4-(4-(4-methoxyphenyl)-1H-1,2,3-triazol-1-yl)-3-methyl-1,2,3,4-tetrahydroquinoline-6-carboxylate] | 563 | 2980 | 5.3
CC[C@H]1[C@@H](C)[C@H](n2cc(-c3ccc(C(F)(F)F)cc3)nn2)c2cc(C(=O)OC)ccc2N1C(C)=O [XN, Methyl (2S,3R,4S)-1-acetyl-2-ethyl-3-methyl-4-(4-(4-(trifluoromethyl)phenyl)-1H-1,2,3-triazol-1-yl)-1,2,3,4-tetrahydroquinoline-6-carboxylate] | 1910 | 14500 | 7.6
CC[C@H]1[C@@H](C)[C@H](n2cc(C3CCCCC3)nn2)c2cc(C(=O)OC)ccc2N1C(C)=O [XO, Methyl-(2S,3R,4S)-1-acetyl-4-(4-cyclohexyl-1H-1,2,3-triazol-1-yl)-2-ethyl-3-methyl-1,2,3,4-tetrahydroquinoline-6-carboxylate] | 860 | 5520 | 6.4
C#CCOCCOCc1cn([C@@H]2c3cc(C(=O)OC)ccc3N(C(C)=O)[C@@H](CC)[C@H]2C)nn1 [XP, Methyl-(2S,3R,4S)-1-acetyl-2-ethyl-3-methyl-4-(4-((2-(prop-2-yn-1-yloxy)ethoxy)methyl)-1H-1,2,3-triazol-1-yl)-1,2,3,4-tetrahydroquinoline-6-carboxylate] | 2260 | ~30000 | 13.2
C#CCOCCOCCOCCOCc1cn([C@@H]2c3cc(C(=O)OC)ccc3N(C(C)=O)[C@@H](CC)[C@H]2C)nn1 [XR, Methyl-(2S,3R,4S)-4-(4-(2,5,8,11-tetraoxatetradec-13-yn-1-yl)-1H-1,2,3-triazol-1-yl)-1-acetyl-2-ethyl-3-methyl-1,2,3,4-tetrahydroquinoline-6-carboxylate] | 2360 | > 100000 | –
C#CCOCCOCCOCCOCCOCc1cn([C@@H]2c3cc(C(=O)OC)ccc3N(C(C)=O)[C@@H](CC)[C@H]2C)nn1 [XS, Methyl-(2S,3R,4S)-4-(4-(2,5,8,11,14-pentaoxaheptadec-16-yn-1-yl)-1H-1,2,3-triazol-1-yl)-1-acetyl-2-ethyl-3-methyl-1,2,3,4-tetrahydroquinoline-6-carboxylate] | 1300 | ~30000 | 23.1
C#CCOCCOCCOCCOCCOCCOCc1cn([C@@H]2c3cc(C(=O)OC)ccc3N(C(C)=O)[C@@H](CC)[C@H]2C)nn1 [XT, Methyl-(2S,3R,4S)-4-(4-(2,5,8,11,14,17-hexaoxaicos-19-yn-1-yl)-1H-1,2,3-triazol-1-yl)-1-acetyl-2-ethyl-3-methyl-1,2,3,4-tetrahydroquinoline-6-carboxylate] | 2040 | ~35000 | 17.2
CC[C@H]1[C@@H](C)[C@H](n2cc(-c3ccccc3)nn2)c2cc(C(F)(F)F)ccc2N1C(C)=O [YC, 1-((2S,3R,4S)-2-Ethyl-3-methyl-4-(4-phenyl-1H-1,2,3-triazol-1-yl)-6-(trifluoromethyl)-3,4-dihydroquinolin-1(2H)-yl)ethan-1-one] | 22500 | – | –
CC[C@H]1[C@@H](C)[C@H](N=[N+]=[N-])c2cc(-c3ccc(NC(=O)CCCCCCC(=O)NO)cc3)ccc2N1C(C)=O [YH, N-(4-((2S,3R,4S)-1-acetyl-4-azido-2-ethyl-3-methyl-1,2,3,4-tetrahydroquinolin-6-yl)phenyl)-N-hydroxyoctanediamide] | – | – | 1.6
